Where a name gives a salt, the structure may show the parent alone.
What was measured:
Assay type in all cases: physicochemical
[1] = Steady-state fluorescence anisotropy in solvents and liposomes; conditions: for steady-state anisotropy (a), DMPC: DMPC liposomes
Protocol: (§1) Steady-state fluorescence measurements were obtained on a SLM Model 4800C. spectrofluorometer with a thermostated cuvette compartment. This instrument was interfaced with an IBM PS/2 model 55 SX computer. Excitation and emission spectra were recorded with an excitation resolution of 8 nm and an emission resolution of 4 nm. In all cases spectra were corrected for background fluorescence and scatter from unlabeled lipids or from solvents by subtraction of the spectrum of a blank. Steady-state fluorescence intensity measurements were made in the absence of polarizer. Steady-state anisotropy (a) measurements were determined with the instrument in the "T-format" for simultaneous measurement of two polarized intensities. The alignment of polarizers were checked routinely using a dilute suspension of 0.25 μm polystyrene microspheres from Polysciences, Inc, Warrington, Pa., in water; anisotropy values of >0.99 were obtained. The anisotropy was calculated from a=(Ivv -GlVH)/(Ivv +GIVH), where G-IVH /IHH and the subscripts refer to vertical and horizontal orientations of the excitation and emission polarizers, respectively.
(§2) Anisotropy measurements for camptothecin, camptothecin carboxylate sodium salt, and 10,11-methylenedioxycamptothecin were conducted using exciting light of 370 nm and 420 nm long wave pass filters on each emission channel in order to isolate the fluorescence signal from background scatter and signal. For topotecan a 400 nm excitation wavelength and a 500 nm emission filter were used and for 9-aminocamptothecin a 375 nm excitation and a wavelength 420 nm emission filter were used. For AMC and CMC, a 370 nm excitation wavelength and a 400 nm emission filter were used. For 10-hydroxycamptothecin 375 nm excitation wavelength 500 nm emission filter was used. Emission filters were obtained from Oriel Corp. Stamford, Conn. The combination of exciting light and emission filters allows one to adequately separate the fluorescence from the background signal. The contribution of background fluorescence, together with scattered light, was typically less than 1% of the total intensity. Since the lactone ring of the camptothecin drug undergoes hydrolysis in aqueous medium, all measurements were completed within the shortest possible time, less than 1 minute after mixing the drug stock solution with PBS or the liposomes. In each case, analysis was initiated immediately after mixing the drug stock solution with PBS or with the liposomes. All measurements were performed at 37° C. unless otherwise noted.
(§3) While the spectral changes provide qualitative evidence that the camptothecin drugs bind the liposome membranes, fluorescence anisotropy titration, offers the most sensitive means for quantitatively assessing the extent of the binding. The fluorescence anisotropy titration was performed according to the method of Burke and Tritton, Biochemistry 24: 1768-1776 (1985).
A steady-state fluorescence anisotropy (a) measurement is related to the rotational rate of the fluorescent molecule through the Perrin Equation: […]
where a0 is the limiting fluorescence anisotropy value, that is, the anisotropy value in the absence of depolarizing rotations, T is the excited-state lifetime, and .phi. is the rotational correlative time of the fluorophore. According to Equation 1, changes in either the T or .phi. values of a fluorescent compound can modulate its steady-state anisotropy.
The limiting fluorescence anisotropy (a0) values were also measured. The maximum values of (a) were obtained by dissolving the camptothecin drugs in the viscous solvent glycerol and cooling the samples to low temperatures. Steady-stated anisotropy (a) values were determined for samples containing 1 μM drug at 37° C.
Where the solvent viscosity is high and temperature is low, depolarizing rotations are at a minimum. By extrapolating these (a) values to -25° C., the limiting anisotropy values (a0) for the camptothecin drugs, were determined. […]

[2] = Fluorescence excitation and emission spectra of camptothecin drugs free in solution and bound to liposomes
From the text: The camptothecin drugs are intrinsically intensely fluorescent. Fluorescence is associated with the extended conjugation of the quinoline ring system. The liposomes of Examples 1-7 were characterized for the presence of the camptothecin drugs, using excitation and emission spectrography, and fluorescence anisotropy.
as §1, §2
The relative fluorescence intensity of 1×10^-6 M of camptothecin free in PBS buffer at 37° C. is shown. The emission spectra of the camptothecin was recorded using exciting light of 370 nm.
An exciting light of 390 nm was used to record the emission spectra of topotecan. A decrease in the emission intensity is observed for topotecan associated with the DMPG liposome.
All spectra were recorded using camptothecin drug concentrations of 2
μM. The DMPC and DMPG concentrations were 0.29 M. Experiments were
conducted in PBS buffer at 37° C.
Also found in Table II is a relative index of the emission intensity levels from these camptothecin drugs in PBS at their respective excitation and emission λMAX.

[3] = HPLC assay of lactone ring hydrolysis, free in PBS or associated with liposomes or micelles; conditions: for carboxylate/lactone ratio (C/L) free drug: final equilibrium; for carboxylate/lactone ratio (C/L) free drug / t1/2 free drug: free in PBS, pH 7.4, 37° C.; for t1/2 free drug: lactone hydrolysis
Protocol: A high performance liquid chromatography assay was used to determine the rate of hydrolysis of camptothecin and topotecan free in aqueous solution and to compare such rates with the rate of hydrolysis for the same drugs when bound to the DMPG and DMPC liposome membranes. The assay was conducted under near physiological conditions; the pH was 7.4, the temperature was 37° C. and the ionic strength was physiological. A Spectroflow model 980 fluorescence detector coupled to an HP 3392A integrator which acquired and processed the chromatograms, was used. For camptothecin, an Ultrasphere ODS C-18 250 mm long column was used. The mobile phase consisted of 32% acetonitrile, 67% 0.1M acetate buffer, pH 5.5, and 1% 01.M sodium dodecylsulfate at a flow rate of 1 mL/min. The detector was set to 370 nm excitation wavelength and a 418 nm long pass emission filter. A 1 μM solution of camptothecin in PBS was prepared and incubated at 37° C. Immediately after mixing the drug stock solution with PBS and at intervals of 5 min thereafter, 50 μL aliquots were taken out and mixed with 150 μL methanolic internal standard, 9-toluoylamidocamptothecin and either analyzed immediately or kept cold under dry ice. 150 μL of this mixture was diluted with 125 μL water and 200 μL was injected. The ratio of the peak areas corresponding to the intact lactone form of the camptothecin drug and the internal standard at a particular time was normalized to that at the time of mixing and was considered as the concentration of the intact lactone form.
For topotecan the excitation wavelength was 362 nm and the emission was observed through a 470 long wave pass filter. The stationary phase was Waters Nova-Pak C-18 150mm long column. The mobile phase consisted of 500 mL 0.1M KH2 PO4, 550 mL acetonitrile, 4.2 mL triethylamine (distilled over molecular sieves), 4.44 g sodium dioctylsulfosuccinate (DOSS), and 970 ml water. The pH was adjusted to 6.0 with H3 PO4. Internal standard solution contained 50×10^-9 g acridine from Eastman and 20×10^-3 M DOSS in methanol and was always kept cold at ≤-20° C. Next 150 μL or cold internal standard solution was mixed with 50 μL aliquot containing topotecan, centrifuged for 1 minute and the supernatant was either analyzed immediately or stored at -20° C. for analysis at a later time, within 2 hours. Samples were monitored at time points from 0 minutes, that is, immediately following dissolution, up to 72 hours.
The kinetics of lactone ring hydrolysis for free camptothecin, CMC and topotecan are shown in of FIGS. 7a, 7b and 7c. Analysis of the decay profile for camptothecin, CMC and topotecan free in PBS was accomplished using a nonlinear least squares program.

[4] = Overall association constant by fluorescence anisotropy titration, DMPC liposomes
Protocol: as §3
The concentrations of free camptothecin drugs and camptothecin drugs associated with liposomes were determined at various lipid concentrations. All experiments were conducted in glass tubes pretreated with a silating agent, Surfacil, from Pearce Chemical, Rockford, Ill. The titration was conducted at camptothecin drug concentration of 1×10^-6 M in PBS at 37° C. Anisotropy values at each lipid concentration were determined within less than 30 seconds following the addition of the camptothecin drugs to the liposome suspension. The (a) values were determined for fixed drug concentration, typically 2 μM, while the lipid concentration was varied from 0 to 0.29M. By varying the lipid concentration rather than varying the drug concentration, the problem of self-association phenomenon which occurs for camptothecin drugs concentrations in excess of 10 μM is avoided. Also, the well-known phenomenon known as inner filter effect which occurs using fluorescent material at high optical densities is a is avoided.
Adsorption isotherms like those shown in FIGS. 4A and 4B were used to determine overall association constants for the camptothecin drugs. Overall association constants are defined as: […]
where [AB ] represents the concentration of the camptothecin drug bound to the vesicle membrane, [AF ] represents the concentration of free drug, and [L] represents the total lipid concentration in the liposome suspension. This equation is valid when the concentration of free lipid is approximately equal to the concentration of total lipid, that is, the concentration of free lipid is in great excess over the concentration of bound drug. Provided this concentration is satisfied, K may be determined from the inverse of the slope of a double reciprocal plot according to (Burke and Tritton, Biochemistry 24:1776, 1985). In such a plot, 1/bound fraction of the total camptothecin drug is plotted vs. 1/[lipid], with a y-intercept value of 1.
FIG. 6A is the double-reciprocal plot for the associations of CMC, camptothecin, camptothecin carboylate sodium salt and topotecan with DMPC at 37° C.
The stabilization of camptothecin drugs was determined using different lipids. Three types of lipids (and thus 3 types of membranes) were examined: fluid-phase and electroneutral L-α-dimyristoylphosphatidylcholine (DMPC); fluid-phase and negatively-charged L-α-dimyristoylphosphatidylglycerol (DMPG), and solid-phase and electroneutral L-α-distearoylphosphatidylcholine (DSPC). While DMPC and DMPG have identical chain length, the charge on their head groups differ. DMPC and DSPC have identical head groups, but DMPC has acyl chains having 14 carbons per chain, which are four carbons shorter than the DSPC, which has 18 carbons per chain. This difference of 4-carbon chain length results in DMPC being fluid-phase at 37° C. while DSPC is solid-phase. The 7 camptothecin drugs listed in Table III were combined with liposomes containing the above lipids.
FIGS. 4A and 4B show the extent of camptothecin drug binding to liposomes as a function of lipid concentration for DMPC and DMPG liposomes. DMPC liposomes were made as in Example 1, at lipid concentrations from 0 to 0.29M, using CMC, 10-hydroxycamptothecin, 10,11-methylenedioxy-camptothecin, topotecan, camptothecin, and camptothecin carboxylate sodium salt, as shown in FIG. 4B. DMPG liposomes were made as in Example 2, at lipid concentrations from 0 to 0.29M, using 9-chloro-10,11-methylenedioxycamptothecin CMC, 10,11-methylenedioxycamptothecin, camptothecin, and topotecan, 9-aminocamptothecin, as shown in FIG. 4A. […]

[5] = in PBS, pH 7.4, at excitation and emission λMAX

## CCC1(O)C(=O)OCc2c1cc1n(c2=O)Cc2cc3c(N)c4c(cc3nc2-1)OCO4 (centres unmarked) [9-amino-10,11-methylenedioxycamptothecin]
[1]; pH 2, 37° C.
  steady-state anisotropy (a), DMPC: 0.160
[1]; pH 3, 37° C.
  steady-state anisotropy (a), PBS: 0.049
[2]; 2 μM, excitation 370 nm, decreased pH
  emission maxima as the pH is decreased: 430 nm
[2]; free in PBS
  shift of emission maxima upon decrease of pH / protonation: about 120 nm
[2]; free in PBS, pH 7.4, 37° C.
  λMAX emission, PBS: 550 nm
[2]; [5]
  Relative Fluorescence: 0.001
[2]; pH 1.5
  λMAX excitation: 373 nm
[2]; pH 1.5, PBS
  Relative Fluorescence: 0.06
[2]; pH 1.5, free in PBS
  λMAX emission, PBS: 430 nm
[2]; pH 7.4, 2 μM drug, PBS, 37° C.
  λMAX excitation: 404 nm
[3]; DMPC and DMPG liposomes
  lactone hydrolysis when associated with liposomes: some hydrolysis occurred at 1 hour
[3]; DMPG or DMPC liposomes, 5 hours
  lactone ring hydrolysis at 5 hours: ≤ 40%
[3]
  carboxylate/lactone ratio (C/L) free drug: 5.1
  t1/2 free drug: 26.9 min

## CCC1(O)C(=O)OCc2c1cc1n(c2=O)Cc2cc3c([N+](=O)[O-])cccc3nc2-1 (centres unmarked) [9-nitrocamptothecin]
[2]; free in PBS, pH 7.4
  reduction in emission intensity levels relative to camptothecin: 1000 -fold
[2]; free in PBS, pH 7.4, 37° C.
  λMAX emission, PBS: 456 nm
[2]; [5]
  Relative Fluorescence: 0.001
[2]; pH 7.4, 2 μM drug, PBS, 37° C.
  λMAX excitation: 378 nm
[3]
  carboxylate/lactone ratio (C/L) free drug: 7.5
  t1/2 free drug: 23.8 min

## CCC(O)(C(=O)O)c1cc2n(c(=O)c1CO)Cc1cc3ccccc3nc1-2 (centres unmarked) [camptothecin carboxylate, camptothecin carboxylate sodium salt]
[1]; 37° C., 1/a vs. 1/[lipid] plot
  steady-state anisotropy (a), DMPC: 0.102
[1]; 1 μM drug, 37° C.
  steady-state anisotropy (a), PBS: 0.008
[1]; extrapolated to -25° C., glycerol
  limiting fluorescence anisotropy a0: 0.377
[1]; glycerol, 1 μM drug, 37° C.
  steady-state anisotropy (a), glycerol: 0.327
[1]; octanol, 1 μM drug, 37° C.
  steady-state anisotropy (a), octanol: 0.073
[2]; DMPC liposomes 0.29 M, pH 7.4, 37° C.
  λMAX emission, DMPC: 437 nm
[2]; DMPG liposomes 0.29 M, pH 7.4, 37° C.
  λMAX emission, DMPG: 435 nm
[2]; free in PBS, pH 7.4, 37° C.
  λMAX emission, PBS: 443 nm
[2]; [5]
  Relative Fluorescence: 1
[2]; pH 7.4, 2 μM drug, PBS, 37° C.
  λMAX excitation: 377 nm
[4]; DMPC (electroneutral, fluid phase), PBS, 37° C.
  overall association constant K, DMPC: 40 M⁻¹
[4]; relative to camptothecin
  reduction in binding to DMPC liposomes upon hydrolysis to carboxylate: three-fold reduction

From patent publication US5552156A, “Liposomal and micellular stabilization of camptothecin drugs” (Ohio State University, priority 1995, dated 1996)
